Data from EP3056202A1, “BENZOPYRROLIDONE DERIVATIVES POSSESSING ANTIVIRAL AND ANTICANCER PROPERTIES” (Max-Planck-Gesellschaft zur Förderung der Wissenschaften …, priority 2015, dated 2016).
Converted amounts (≈) assume the structure as drawn.

Experiments:
[1] = test system: A549 human lung carcinoma cells; test: Cell-based EC50 determination, A549 cells (CellTiter-Glo cell viability); conditions: A549, 24 h, read-out: A549 EC50 24h
Description: A549 human lung carcinoma cells were cultured in RPMI 1640 medium (Sigma) supplemented with 10% fetal bovine serum (Sigma) and Antibiotic-Antimycotic (Sigma) in tissue culture flasks at 37°C in a humidified 5% CO2 atmosphere. Cells were routinely assayed for mycoplasma contamination.
Two thousand cells were plated in 384-well tissue culture plates, and treated after 24 hours with a 10-point dilution series of the compounds (1.5 nM-30 uM), using the vehicle, DMSO as control. Cells were incubated for 24 hours after which the relative cell density was determined by CellTiter-Glo Luminescent Cell Viability Assay (Promega). This method determines the number of metabolically active cells in the culture based on quantitation of the ATP present. The luminescent signal was measured with an Analyst GT multimode reader (Molecular Devices). […]

[2] = molecular target: human Ack1 kinase (Homo sapiens, UniProt Q07912); test: In vitro Ack1 assay (TranScreener ADP2 FP, generation of ADP); format: biochemical; conditions: 12.5 uM compound; 3.5 µM ATP; read-out: Ack1 inh% @12.5 uM
Description: The activity of the compounds described in the present invention can be determined by the following kinase assay, which measures the generation of ADP by human Ack1 kinase by fluorescent polarization using a commercially available TranScreener ADP2 FP Assay Kit (BellBrook Labs).
Ack1 kinase assays were performed in low protein binding 384-well plates (Corning). Test compounds were diluted in 100% DMSO to 5 mM stock concentration and then further dilutions were made in H2O or 100% DMSO to desirable concentrations.
Each reaction consisted of 5 nM enzyme: Ack1 kinase, Poly Glu-Tyr (4:1) (Sigma), 3.5 µM ATP and kinase buffer: 20 mM HEPES pH7.5, 1 mM DTT, 2 mM MgCl2, 0.4 mM MnCl2, 0.01 V/V% Tween20 (all reagents from Sigma-Aldrich)
For each reaction, 4 or 6 µl containing Poly Glu-Tyr (4:1), ATP and kinase buffer were combined with 2 µl diluted compound in H2O or 0.02 µl compound in 100% DMSO. The kinase reaction was started by the addition of 2 µl diluted enzyme. The reaction was allowed to run for 1 hour at room temperature. The reaction was stopped by addition of 8 µl ADP detection mixture (1 x) (1 x Detection buffer + 4.78 µg/ml ADP2 Ab + 4 nM ADP Alexa633 Tracer). After an additional hour, fluorescent polarization (Ex: 630-35 nm, Em: 680-30 nm, Dich: 650 nm) was measured using an Analyst GT (Molecular Devices).

[3] = test system: HCT-116 human colon carcinoma cell line; test: In vitro growth inhibition of colon carcinoma cells, HCT-116 (CellTiter-Glo); format: cell-based; conditions: 72 hours incubation, read-out: HCT116 EC50
[4] = test system: HKE3 human colon carcinoma cell line; test: In vitro growth inhibition of colon carcinoma cells, HKE3 (CellTiter-Glo); format: cell-based; conditions: 72 hours incubation
[5] = molecular target: T1, human Clk1 kinase (Homo sapiens, UniProt P49759); test: In vitro Clk1 assay (IMAP fluorescence polarization); format: biochemical; conditions: 0.45 µM ATP
T1 construct: Each reaction consisted of 4 nM enzyme: Clk1 kinase domain
Description: The activity of the compounds described in the present invention can be determined by the following kinase assay, which measures the phosphorylation of a fluorescently-labeled peptide by human Clk1 kinase by fluorescent polarization using a commercially available IMAP Screening Express Assay Kit (Molecular Devices).
Clk1 kinase assays were performed in low protein binding 384-well plates (Corning). Test compounds were diluted in 100% DMSO to 5 mM stock concentration and then further dilutions were made in H2O or 100% DMSO to desirable concentrations.
Each reaction consisted of 4 nM enzyme: Clk1 kinase domain, 400 nM TAMRA-AFRREWSPGKEAKK-NH2 (Genecust), 0.45 µM ATP (Sigma) and kinase buffer: 20 mM TRIS pH 8, 1 mM DTT, 0.4 mM MgCl2, 0.4 mM MnCl2, 0.01 V/V% Tween20 (all reagents from Sigma-Aldrich)
(§1) For each reaction, 4 or 6 µl containing TAMRA-peptide, ATP and kinase buffer were combined with 2 µl diluted compound in H2O or 0.02 µl compound in 100% DMSO. The kinase reaction was started by the addition of 2 µl diluted enzyme. The reaction was allowed to run for 1 hour at room temperature. The reaction was stopped by adding 15 µl IMAP beads (1:600 beads in progressive (80 % buffer A, 20% buffer B) 1x buffer). After an additional hour, fluorescent polarization (Ex: 550-10 nm, Em: 590-10 nm, Dich: 561 nm) was measured using an Analyst GT (Molecular Devices).

[6] = molecular target: human Akt1 kinase (Homo sapiens, UniProt P31749); test: In vitro Akt1 assay (IMAP fluorescence polarization, phosphorylation of TAMRA-peptide); format: biochemical; conditions: 40 µM ATP; for inhibition at 12.5 µM: 12.5 uM compound, read-out: Akt1 inh% @12.5 uM
Description: The inhibition of Akt1 by the compounds described in the present invention were determined measuring the phosphorylation of a fluorescently-labeled peptide (TAMRA-peptide) by human Akt1 kinase by fluorescent polarization using a commercially available IMAP Screening Express Assay Kit (Molecular Devices).
Akt1 kinase assays were performed in low protein binding 384-well plates (Corning). Test compounds were diluted in 100% DMSO to 5 mM stock concentration and then further dilutions were made in H2O or 100% DMSO to desirable concentrations.
Each reaction consisted of 5 nM enzyme: Akt1 kinase, 400 nM TAMRA-peptide (5-TAMRA-GRTGRRNSI-COOH; Genecust), 40 µM ATP and kinase buffer: 20 mM MES pH6, 1 mM DTT, 10 mM MgCl2, 2 mM MnCl2, 0.01 V/V% TritonX (all reagents from Sigma-Aldrich).
as §1, with “(1:400” for “(1:600”, “(75%” for “(80 %”, “25%” for “20%”

[7] = test system: HepG2 hepatoblastomaderived cell line; test: In vitro growth inhibition, HepG2 (CellTiter-Glo); format: cell-based; conditions: Homo sapiens, 72 hours incubation
[8] = physchem; format: physicochemical; conditions: kinetic from dmso stock
Description: Samples were diluted in DMSO (control), phosphate buffer pH = 7.4 and pH = 2.0, from 5mM stock solutions (solved in DMSO), with a 120 µM final concentration. The samples were incubated for 24 hours at room temperature followed by 30 minutes centrifugation at 3700 rpm. 40 µl of the supernatants were injected into HPLC (Waters 2795 Alliance HPLC equipped with Waters 996 PDA Detector (HPLC column: Waters XBridge, RP C18, 3.5 µm, 4.6 mm x 50 mm; gradient MeCN/H2O, containing 0.1% HCOOH: 5% MeCN (0.5 min), 5% to 95% MeCN (5 min), 95% MeCN (0.5 min); flow rate: 2.0 ml/min)) and the AUC values (measured on sample specific wavelength) of the buffered samples were divided by the AUC values (same wavelength as buffered samples') of the DMSO control samples. Table 3: Solubility in water for several compounds according to general formula (I)

[9] = test system: H1 N1 influenza virus strain A/WSN/33; test: microbe, parasite or virus in culture; format: cell-based; conditions: 36 h, read-out: Influenza replication IC50

Chain of human Akt1 kinase (P31749 whole entry): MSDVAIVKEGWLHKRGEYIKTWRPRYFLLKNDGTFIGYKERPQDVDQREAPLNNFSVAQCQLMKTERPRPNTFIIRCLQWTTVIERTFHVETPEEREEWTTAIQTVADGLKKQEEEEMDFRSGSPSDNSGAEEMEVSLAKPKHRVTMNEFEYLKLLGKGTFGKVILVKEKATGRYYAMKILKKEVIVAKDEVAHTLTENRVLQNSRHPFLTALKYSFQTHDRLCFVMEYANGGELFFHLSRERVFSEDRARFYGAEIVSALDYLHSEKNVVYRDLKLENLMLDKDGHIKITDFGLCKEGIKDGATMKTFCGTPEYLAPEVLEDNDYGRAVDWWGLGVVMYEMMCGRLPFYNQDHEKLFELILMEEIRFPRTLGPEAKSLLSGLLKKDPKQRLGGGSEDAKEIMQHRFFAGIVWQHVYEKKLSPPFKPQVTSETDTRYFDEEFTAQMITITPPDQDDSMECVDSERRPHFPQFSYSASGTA
Chain of human Ack1 kinase (Q07912 whole entry): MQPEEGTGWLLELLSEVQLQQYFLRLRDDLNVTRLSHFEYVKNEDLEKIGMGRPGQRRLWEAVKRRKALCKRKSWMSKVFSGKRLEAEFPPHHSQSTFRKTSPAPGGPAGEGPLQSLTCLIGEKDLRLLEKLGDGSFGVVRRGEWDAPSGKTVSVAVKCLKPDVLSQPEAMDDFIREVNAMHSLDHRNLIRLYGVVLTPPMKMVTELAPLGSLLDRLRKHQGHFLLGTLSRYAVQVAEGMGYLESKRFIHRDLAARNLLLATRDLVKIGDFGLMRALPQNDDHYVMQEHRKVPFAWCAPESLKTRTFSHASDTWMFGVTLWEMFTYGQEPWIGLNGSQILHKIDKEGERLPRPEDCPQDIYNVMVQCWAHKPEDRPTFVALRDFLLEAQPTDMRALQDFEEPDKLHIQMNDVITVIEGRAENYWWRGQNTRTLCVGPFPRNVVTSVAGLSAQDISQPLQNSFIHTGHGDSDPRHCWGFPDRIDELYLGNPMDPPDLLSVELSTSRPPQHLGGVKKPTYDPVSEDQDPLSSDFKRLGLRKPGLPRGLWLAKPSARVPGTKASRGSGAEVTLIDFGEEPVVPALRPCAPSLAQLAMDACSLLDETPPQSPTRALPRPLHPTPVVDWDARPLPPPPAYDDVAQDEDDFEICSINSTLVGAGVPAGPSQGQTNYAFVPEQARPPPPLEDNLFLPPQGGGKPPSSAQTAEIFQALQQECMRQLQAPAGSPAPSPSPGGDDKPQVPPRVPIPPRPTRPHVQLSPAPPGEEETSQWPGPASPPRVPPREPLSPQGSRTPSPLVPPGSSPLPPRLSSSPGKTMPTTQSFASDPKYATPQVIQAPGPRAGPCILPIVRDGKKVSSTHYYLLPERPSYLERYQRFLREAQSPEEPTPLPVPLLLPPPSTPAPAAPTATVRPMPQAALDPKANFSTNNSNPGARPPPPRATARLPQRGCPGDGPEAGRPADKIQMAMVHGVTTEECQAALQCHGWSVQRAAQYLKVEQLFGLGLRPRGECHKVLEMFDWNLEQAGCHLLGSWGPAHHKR
T1 sequence (P49759 161-477 limits assumed): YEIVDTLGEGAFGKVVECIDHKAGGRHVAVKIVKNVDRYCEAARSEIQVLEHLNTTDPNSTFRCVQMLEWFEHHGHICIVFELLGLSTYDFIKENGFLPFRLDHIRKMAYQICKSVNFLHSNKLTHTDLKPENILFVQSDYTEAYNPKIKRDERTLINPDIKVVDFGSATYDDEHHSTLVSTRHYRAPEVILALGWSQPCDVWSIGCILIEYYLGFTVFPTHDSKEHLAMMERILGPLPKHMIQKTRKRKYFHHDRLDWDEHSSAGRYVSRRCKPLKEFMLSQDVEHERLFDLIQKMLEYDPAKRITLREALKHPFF

Compound | EC50 [1] [nM] | inhibition at 12.5 µM [2] [%] | EC50 [3] [nM] | EC50 [4] [nM] | IC50 [5] [nM] | inhibition at 12.5 µM [6] [%] | IC50 [6] [nM] | EC50 [7] [nM] | solubility at 24 h ([8]; pH 2, aqueous buffer) [µM] | solubility at 24 h ([8]; pH 7.4, aqueous buffer) [µM] | IC50 [9] [nM]
C[C@@H](NC(=O)c1ccc2c(c1)/C(=C(/Nc1cccc(CN3CCCCC3)c1)c1ccccc1)C(=O)N2)c1ccccc1 [Compound 13, (3Z)-2-oxo-N-[(1R)-1-phenylethyl]-3-(phenyl{[3-(piperidin-1-ylmethyl)phenyl]amino}methylene)indoline-5-carboxamide] | 9340 | 13.7 | 170 | 140 | 30 | 60.6 | 5940 | 5660 | 110 to 120 (≈ 61.2 to 66.8 µg/mL) | < 10 | 160
CC[C@@H](NC(=O)c1ccc2c(c1)/C(=C(/Nc1ccc(CN3CCCCC3)cc1)c1ccccc1)C(=O)N2)c1ccccc1 [Compound 18, (3Z)-2-oxo-3-(phenyl{[4-(piperidin-1-ylmethyl)phenyl]amino}methylene)-N-[(1R)-1-phenylpropyl]indoline-5-carboxamide] | > 30000 | 85.9 | 10 | 4 | 30 | 92.1 | 570 | 310 | 110 to 120 (≈ 62.8 to 68.5 µg/mL) | < 10 | < 10
O=C1Nc2ccc(C(=O)NCc3ccccc3)cc2/C1=C(/Nc1ccc(CN2CCCCC2)cc1)c1ccccc1 [Compound 20, (3Z)-N-benzyl-2-oxo-3-(phenyl{[4-(piperidin-1-ylmethyl)phenyl]amino}methylene)indoline-5-carboxamide] | > 30000 | 72.7 | 20 | 10 | 10 | 91.6 | 910 | 790 | 110 to 120 (≈ 59.7 to 65.1 µg/mL) | < 10 | < 10
COc1ccc([C@@H](C)NC(=O)c2ccc3c(c2)/C(=C(/Nc2ccc(CN4CCCCC4)cc2)c2ccccc2)C(=O)N3)cc1 [Compound 21, (3Z)-N-[(1R)-1-(4-methoxyphenyl)ethyl]-2-oxo-3-(phenyl{[4-(piperidin-1-ylmethyl)phenyl]amino}methylene)indoline-5-carboxamide] | > 30000 | 87 | 410 | 320 | 20 | 78.2 | 1700 | 5300 | 100 to 110 (≈ 58.7 to 64.5 µg/mL) | < 10 | 1480
COc1cccc([C@@H](C)NC(=O)c2ccc3c(c2)/C(=C(/Nc2ccc(CN4CCCCC4)cc2)c2ccccc2)C(=O)N3)c1 [Compound 22, (3Z)-N-[(1R)-1-(3-methoxyphenyl)ethyl]-2-oxo-3-(phenyl{[4-(piperidin-1-ylmethyl)phenyl]amino}methylene)indoline-5-carboxamide] | > 30000 | 83.8 | 40 | 20 | 20 | 88 | 110 | 1060 | 110 to 120 (≈ 64.5 to 70.4 µg/mL) | < 10 | < 10
C[C@@H](NC(=O)c1ccc2c(c1)/C(=C(/Nc1ccc(CN3CCCCC3)cc1)c1ccccc1)C(=O)N2)c1ccc(F)cc1 [Compound 23, (3Z)-N-[(1R)-1-(4-fluorophenyl)ethyl]-2-oxo-3-(phenyl{[4-(piperidin-1-ylmethyl)phenyl]amino}methylene)indoline-5-carboxamide] | 15300 | 91.1 | 40 | 40 | 20 | 92.1 | 180 | 920 | 110 to 120 (≈ 63.2 to 69 µg/mL) | < 10 | < 10
COc1cccc([C@@H](C)NC(=O)c2ccc3c(c2)/C(=C(/Nc2cccc(CN4CCCCC4)c2)c2ccccc2)C(=O)N3)c1 [Compound 24, (3Z)-N-[(1R)-1-(3-methoxyphenyl)ethyl]-2-oxo-3-(phenyl{[3-(piperidin-1-ylmethyl)phenyl]amino}methylene)indoline-5-carboxamide] | 11800 | 13.7 | 380 | 290 | 80 | 76.8 | 880 | 6090 | 110 to 120 (≈ 64.5 to 70.4 µg/mL) | < 10 | 420
Cc1ccc([C@@H](C)NC(=O)c2ccc3c(c2)/C(=C(/Nc2cccc(CN4CCCCC4)c2)c2ccccc2)C(=O)N3)cc1 [Compound 27, (3Z)-N-[(1R)-1-(4-methylphenyl)ethyl]-2-oxo-3-(phenyl{[3-(piperidin-1-ylmethyl)phenyl]amino}methylene)indoline-5-carboxamide] | 25400 | 9.9 | 1410 | 1320 | 200 | 81.3 | 2960 | 5240 | 110 to 120 (≈ 62.8 to 68.5 µg/mL) | < 10 | 2460
